Laboratory results: US12102648B2, “Orally-bioavailable nucleoside analogs” (priority 2021, dated 2024)
Read-outs that look alike come from different tables or passages of the source.

Assay: in vitro
Format: in vitro ADME
Settings: human
How it was run: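 Caco-2 monolayers cultured 19 days on inserts (TEER >600 […]); bidirectional A-to-B and B-to-A transport at 37° C over 90 min, samples quantified by LC/MS/MS. Papp, efflux ratio and recovery calculated; ER >2 flags potential efflux substrates.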

[1] = Caco-2 monolayer, apical to basolateral, 90-minute incubation, read-out: Papp, A-B
[2] = Caco-2 monolayer, basolateral to apical, 90-minute incubation, read-out: Papp, B-A
[3] = Caco-2 monolayer, ER>2 indicates potential efflux transporter substrate, read-out: ER (efflux ratio)

SMILES	Papp A→B at 90 min [1]	Papp B→A at 90 min [2]	efflux ratio at 90 min [3]	Papp A→B at 90 min (Caco-2)	Papp B→A at 90 min (Caco-2)	efflux ratio at 90 min (Caco-2)
N#C[C@@]1(c2ccc3c(NC(=O)[C@@H](N)Cc4ccc(F)cc4)ncnn23)O[C@H](COC(=O)Cc2ccccc2)[C@@H](O)[C@H]1O [Compound 97, ((2R,3S,4R,5R)-5-(4-((S)-2-amino-3-(4-fluorophenyl)propanamido)pyrrolo[2,1-f][1,2,4]triazin-7-yl)-5-cyano-3,4-dihydroxytetrahydrofuran-2-yl)methyl 2-phenylacetate]	3.8 ×10⁻⁶ cm/s	6.6 ×10⁻⁶ cm/s	1.8	–	–	–
CC(C)[C@H](N)C(=O)O[C@H]1[C@@H](O)[C@](C#N)(c2ccc3c(NC(=O)OCOC(=O)C(C)(C)C)ncnn23)O[C@@H]1COC(=O)Cc1ccccc1 [Compound 360, (2R,3S,4R,5R)-5-cyano-4-hydroxy-2-((2-phenylacetoxy)methyl)-5-(4-((((pivaloyloxy)methoxy)carbonyl)amino)pyrrolo[2,1-f][1,2,4]triazin-7-yl)tetrahydrofuran-3-yl L-valinate]	0.49 ×10⁻⁶ cm/s	0.16 ×10⁻⁶ cm/s	0.33	–	–	–
CC1(CC(=O)OC[C@H]2O[C@@](C#N)(c3ccc4c(N)ncnn34)[C@H](O)[C@@H]2O)CCCCC1 [Compound 273, ((2R,3S,4R,5R)-5-(4-aminopyrrolo[2,1-f][1,2,4]triazin-7-yl)-5-cyano-3,4-dihydroxytetrahydrofuran-2-yl)methyl 2-(1-methylcyclohexyl)acetate]	–	–	–	3.7 ×10⁻⁶ cm/s	3.2 ×10⁻⁶ cm/s	0.85
CNc1nc(N)nc2c1ncn2[C@@H]1O[C@H](COC(C)=O)[C@@H](OC(=O)Cc2ccccc2)[C@@]1(C)F [Compound 210, (2R,3R,4R,5R)-2-(acetoxymethyl)-5-(2-amino-6-(methylamino)-9H-purin-9-yl)-4-fluoro-4-methyltetrahydrofuran-3-yl 2-phenylacetate]	15 ×10⁻⁶ cm/s	5.8 ×10⁻⁶ cm/s	0.38	–	–	–
CC(C)C(=O)OC[C@H]1O[C@@](C#N)(c2ccc3c(NC(=O)[C@@H](N)Cc4ccc(F)cc4)ncnn23)[C@H](O)[C@@H]1O [Compound 100, ((2R,3S,4R,5R)-5-(4-((S)-2-amino-3-(4-fluorophenyl)propanamido)pyrrolo[2,1-f][1,2,4]triazin-7-yl)-5-cyano-3,4-dihydroxytetrahydrofuran-2-yl)methyl isobutyrate]	–	–	–	0.03 ×10⁻⁶ cm/s	2.7 ×10⁻⁶ cm/s	92
N#C[C@@]1(c2ccc3c(N)ncnn23)O[C@H](COC(=O)[C@@H](N)Cc2ccccc2)[C@@H](OC(=O)CC2CCCCC2)[C@H]1O [Compound 372, ((2R,3S,4R,5R)-5-(4-aminopyrrolo[2,1-f][1,2,4]triazin-7-yl)-5-cyano-3-(2-cyclohexylacetoxy)-4-hydroxytetrahydrofuran-2-yl)methyl L-phenylalaninate]	–	–	–	0.73 ×10⁻⁶ cm/s	0.83 ×10⁻⁶ cm/s	1.1
CC(C)[C@H](N)C(=O)Nc1ncnn2c([C@]3(C#N)O[C@H](CO)[C@@H](OC(=O)[C@@H](N)C(C)C)[C@H]3O)ccc12 [Compound 129, (2R,3S,4R,5R)-5-{4-[(2S)-2-amino-3-methylbutanamido]pyrrolo[2,1-f][1,2,4]triazin-7-yl}-5-cyano-4-hydroxy-2-(hydroxymethyl)oxolan-3-yl (2S)-2-amino-3-methylbutanoate]	–	–	–	0.03 ×10⁻⁶ cm/s	0.02 ×10⁻⁶ cm/s	0.7
CC(=O)O[C@H]1[C@@H](OC(C)=O)[C@](C#N)(c2ccc3c(N)ncnn23)O[C@@H]1COC(=O)C(C)(C)C1CCCCC1 [Compound 412, (2R,3R,4R,5R)-2-(4-aminopyrrolo[2,1-f][1,2,4]triazin-7-yl)-2-cyano-5-(((2-cyclohexyl-2-methylpropanoyl)oxy)methyl)tetrahydrofuran-3,4-diyl diacetate]	–	–	–	5.1 ×10⁻⁶ cm/s	0.9 ×10⁻⁶ cm/s	0.2
N#C[C@@]1(c2ccc3c(N)ncnn23)O[C@H](COC(=O)CC2CC2)[C@@H](O)[C@H]1O [Compound 258, [(2R,3S,4R,5R)-5-{4-aminopyrrolo[2,1-f][1,2,4]triazin-7-yl}-5-cyano-3,4-dihydroxyoxolan-2-yl]methyl 2-cyclopropylacetate]	–	–	–	0.09 ×10⁻⁶ cm/s	0.3 ×10⁻⁶ cm/s	3.5
CC(=O)Nc1ncnn2c([C@]3(C#N)O[C@H](COC(=O)CC4CCCCC4)[C@@H](OC(=O)[C@@H](N)C(C)C)[C@H]3O)ccc12 [Compound 348, (2R,3S,4R,5R)-5-(4-acetamidopyrrolo[2,1-f][1,2,4]triazin-7-yl)-5-cyano-2-((2-cyclohexylacetoxy)methyl)-4-hydroxytetrahydrofuran-3-yl L-valinate]	–	–	–	0.43 ×10⁻⁶ cm/s	13 ×10⁻⁶ cm/s	30
CCCCC(=O)Nc1ncnn2c([C@]3(C#N)O[C@H](COC(=O)C(C)C)[C@@H](O)[C@H]3O)ccc12 [Compound 276, ((2R,3S,4R,5R)-5-cyano-3,4-dihydroxy-5-(4-pentanamidopyrrolo[2,1-f][1,2,4]triazin-7-yl)tetrahydrofuran-2-yl)methyl isobutyrate]	–	–	–	0.36 ×10⁻⁶ cm/s	2.9 ×10⁻⁶ cm/s	8
N#C[C@@]1(c2ccc3c(NC(=O)c4ccccc4)ncnn23)O[C@H](CO)[C@@H](O)[C@H]1O [Compound 85, N-(7-((2R,3R,4S,5R)-2-cyano-3,4-dihydroxy-5-(hydroxymethyl)tetrahydrofuran-2-yl)pyrrolo[2,1-f][1,2,4]triazin-4-yl)benzamide]	–	–	–	0.37 ×10⁻⁶ cm/s	11 ×10⁻⁶ cm/s	31
CCCCC(=O)Nc1ncnn2c([C@]3(C#N)O[C@H](COC(=O)[C@@H](N)C(C)C)[C@@H](O)[C@H]3O)ccc12 [Compound 341, ((2R,3S,4R,5R)-5-cyano-3,4-dihydroxy-5-(4-pentanamidopyrrolo[2,1-f][1,2,4]triazin-7-yl)tetrahydrofuran-2-yl)methyl L-valinate]	–	–	–	0.13 ×10⁻⁶ cm/s	2.3 ×10⁻⁶ cm/s	18
C[C@H]1CC[C@H](CC(=O)OC[C@H]2O[C@@](C#N)(c3ccc4c(N)ncnn34)[C@H](O)[C@@H]2O)CC1 [Compound 278, ((2R,3S,4R,5R)-5-(4-aminopyrrolo[2,1-f][1,2,4]triazin-7-yl)-5-cyano-3,4-dihydroxytetrahydrofuran-2-yl)methyl 2-((1r,4R)-4-methylcyclohexyl)acetate]	–	–	–	2.2 ×10⁻⁶ cm/s	4.9 ×10⁻⁶ cm/s	2.2
N#C[C@@]1(c2ccc3c(NC(=O)c4ccccc4)ncnn23)O[C@H](CO)[C@@H](OC(=O)CC2CCCCC2)[C@H]1O [Compound 342, (2R,3S,4R,5R)-5-(4-benzamidopyrrolo[2,1-f][1,2,4]triazin-7-yl)-5-cyano-4-hydroxy-2-(hydroxymethyl)tetrahydrofuran-3-yl 2-cyclohexylacetate]	–	–	–	1.1 ×10⁻⁶ cm/s	0.39 ×10⁻⁶ cm/s	0.34
CC(C)(C)C(=O)OCOC(=O)Nc1ncnn2c([C@]3(C#N)O[C@H](COC(=O)CC4(N)CCCCC4)[C@@H](O)[C@H]3O)ccc12 [Compound 367, (((7-((2R,3R,4S,5R)-5-((2-(1-aminocyclohexyl)acetoxy)methyl)-2-cyano-3,4-dihydroxytetrahydrofuran-2-yl)pyrrolo[2,1-f][1,2,4]triazin-4-yl)carbamoyl)oxy)methyl pivalate]	–	–	–	2.8 ×10⁻⁶ cm/s	1.6 ×10⁻⁶ cm/s	0.57
CCC(=O)O[C@@H]1[C@@H](COC(C)=O)O[C@@H](n2cnc3c(NC)nc(N)nc32)[C@]1(C)F [Compound 329, (2R,3R,4R,5R)-2-(acetoxymethyl)-5-(2-amino-6-(methylamino)-9H-purin-9-yl)-4-fluoro-4-methyltetrahydrofuran-3-yl propionate]	–	–	–	16 ×10⁻⁶ cm/s	18 ×10⁻⁶ cm/s	1.1
CC(C)C(=O)OC[C@H]1O[C@@](C#N)(c2ccc3c(N)ncnn23)[C@H](O)[C@@H]1OC(=O)CC1CCCCC1 [Compound 58, ((2R,3S,4R,5R)-5-(4-aminopyrrolo[2,1-f][1,2,4]triazin-7-yl)-5-cyano-3-(2-cyclohexylacetoxy)-4-hydroxytetrahydrofuran-2-yl)methyl isobutyrate]	–	–	–	4.1 ×10⁻⁶ cm/s	2.1 ×10⁻⁶ cm/s	0.5
CC(C)CC(=O)OC[C@H]1O[C@@](C#N)(c2ccc3c(N)ncnn23)[C@H](O)[C@@H]1OC(=O)CC1CCCCC1 [Compound 18, ((2R,3S,4R,5R)-5-(4-aminopyrrolo[2,1-f][1,2,4]triazin-7-yl)-5-cyano-3-(2-cyclohexylacetoxy)-4-hydroxytetrahydrofuran-2-yl)methyl 3-methylbutanoate]	–	–	–	16 ×10⁻⁶ cm/s	8.8 ×10⁻⁶ cm/s	0.6
CC(=O)OCOC(=O)Nc1ncnn2c([C@]3(C#N)O[C@H](COC(=O)CC4CCCCC4)[C@@H](OC(=O)[C@@H](N)C(C)C)[C@H]3O)ccc12 [Compound 358, (2R,3S,4R,5R)-5-(4-(((acetoxymethoxy)carbonyl)amino)pyrrolo[2,1-f][1,2,4]triazin-7-yl)-5-cyano-2-((2-cyclohexylacetoxy)methyl)-4-hydroxytetrahydrofuran-3-yl L-valinate]	–	–	–	0.3 ×10⁻⁶ cm/s	0.1 ×10⁻⁶ cm/s	0.33
N#C[C@@]1(c2ccc3c(N)ncnn23)O[C@H](COC(=O)CC2CCC(C(F)(F)F)CC2)[C@@H](O)[C@H]1O (stereo partly drawn) [Compound 270, ((2R,3S,4R,5R)-5-(4-aminopyrrolo[2,1-f][1,2,4]triazin-7-yl)-5-cyano-3,4-dihydroxytetrahydrofuran-2-yl)methyl 2-(4-(trifluoromethyl)cyclohexyl)acetate]	–	–	–	1.9 ×10⁻⁶ cm/s	6.9 ×10⁻⁶ cm/s	3.7
